Values of other authors as cited in patent US20240226024A1 (Empros Pharma AB, priority 2021, published 2024).

Columns and labels:
[1] = for Fraction of the dose absorbed: oral administration
[2] = for Additional weight loss relative to placebo at one year: on average; for Placebo adjusted reduction of body weight: oral administration for 6 months
[3] = not given; remark: listed apart in the source

CCCCCCCCCCC[C@@H](C[C@@H]1OC(=O)[C@H]1CCCCCC)OC(=O)[C@H](CC(C)C)NC=O [orlistat, (S)-((S)-1-((2S,3S)-3-Hexyl-4-oxooxetan-2-yl)tridecan-2-yl) 2-formamido-4-methylpentanoate]
Participants who reported faecal incontinence, similar 6-month trial (6-month trial): 5% | Patients who complain about GI side-effects in clinical trials (diarrhea, oily spotting and fecal urgency): ≥ 25% | Participants who reported faecal incontinence, trials of longer duration (trials of longer duration): approximately 18% | Fraction of the dose absorbed [1]: < 3% | Plasma exposure ([1]; oral, conventional dosage form): < 5 ng/mL | Relative weight loss, best case scenario ([2]; conventional dosage form, placebo 6%): 10% | Approximate relative weight loss, conventional dosage form ([2]; conventional dosage forms): 2-3% | Additional weight loss relative to placebo at one year [2]: ~3% | Placebo adjusted reduction of body weight [2]: 2-3% | Solubility in water (in words) [3]: practically insoluble in water | Water solubility [3]: less than 0.001 g/ml | log P [3]: 8.5

C[C@H]1CNCCc2ccc(Cl)cc21 [lorcaserin]
Decrease of body weight more than placebo ([2]; human, in vivo): about 3.2 kg | Decrease of body weight more than placebo, % of initial body weight ([2]; human, in vivo): about 3.2% | Additional weight loss relative to placebo at one year [2]: ~3%

OCCN1C[C@H](O)[C@@H](O)[C@H](O)[C@H]1CO [Miglitol, miglitol]
Fraction of the dose absorbed [1]: 100%

C[C@H]1O[C@H](O[C@H]2[C@H](O)[C@@H](O)[C@@H](O[C@H]3[C@H](O)[C@@H](O)C(O)O[C@@H]3CO)O[C@@H]2CO)[C@H](O)[C@@H](O)[C@@H]1N[C@H]1C=C(CO)[C@@H](O)[C@H](O)[C@H]1O (stereo partly drawn) [acarbose, O-4,6-Dideoxy-4-[[(1S,4R,5S,6S)-4,5,6-trihydroxy-3-(hydroxymethyl)cyclohex-2-enyl]amino]-α-D-glucopyranosyl-(1→4)-O-α-D-gluco-pyranosyl-(1→4)-D-glucopyranose]
Placebo adjusted reduction of body weight [2]: approx. 0.5%

OCC(CO)N[C@H]1C[C@](O)(CO)[C@@H](O)[C@H](O)[C@H]1O [voglibose]
Fraction of the dose absorbed [1]: only negligibly absorbed
